In US20220275387A1, “TRANSCRIPTION FACTOR NtERF221 AND METHODS OF USING THE SAME” (University of Virginia Patent Foundation, priority 2019, published 2022):
“Also recorded” adds a separate entry of the source.

Experiments:
[1] = system: NtAO, NtODC, NtPMT, NtQPT, and NtQS; assay: RT-qPCR of nicotine biosynthesis structural genes in transgenic tobacco seedlings; format: in vivo, Nicotiana tabacum; conditions: two-week-old seedlings, 100 μM MeJA for 8 hours, normalized to NtEF-1α
Experimental: (§1) Plant materials and transformation. Tobacco plants (Nicotiana tabacum L. var. K326) were used for all the tests and genetic transformations described herein. Wild-type or transgenic seeds were germinated on Murashige and Skoog (MS) plates. For quantitative RT-PCR, germinated small seedlings were transferred onto larger MS plates and grown vertically until two weeks old before treated with 0.1% DMSO (control) or 100 μM MeJA. For TLC and GC-MS analysis, germinated seedlings were transferred in soil and grown under normal condition till five weeks old before DMSO or MeJA treatment. Agrobacterium tumefaciens strain LBA4404 harboring each transgenic vector was used for genetic transformation of tobacco following the experiment procedure described previously (Horsch et al., 1985). At least eight T0 transgenic plants were confirmed by genomic DNA PCR and then self-pollinated to produce T1 generation. […]
RNA isolation and quantitative reverse transcription-PCR (RT-qPCR). […] The DNA-eliminated total RNA was then reverse-transcribed using QuantiTect reverse transcription kit (Qiagen). Quantitative PCR was conducted iTaq™ Universal SYBR® Green supermix (Bio-Rad Laboratories) on an CFX96™ Real-Time PCR detection system (Bio-Rad Laboratories). […]

[2] = system: Nicotiana tabacum L. var. K326; assay: GC-MS quantification of nicotine in leaf of wild-type and transgenic tobacco; format: in vivo; conditions: five-week-old plants, DMSO or MeJA
Experimental: as §1
Gas chromatography-mass spectrometry (GC-MS). […] Nicotine concentration was measured on a Shimadzu GCMS QP2010 plus system with a protocol developed previously (Goossens et al., (2003); Zhang et al., (2012)). […]
To further quantify nicotine concentration for the comparison between transgenic lines and the wild-types, GC-MS analysis was applied with total alkaloids extracted from the leaf tissue of five-week-old wild-type or transgenic plants treated with DMSO (control) or MeJA. […]

[3] = system: Nicotiana tabacum L. var. K326; assay: TLC assay for nicotine accumulation in leaves of T2 overexpression lines; format: in vivo; conditions: T2 transgenic plants, 5-week-old, constitutive or conditional overexpression
Experimental: Plant materials and transformation. Tobacco plants (Nicotiana tabacum L. var. K326) were used for all the tests and genetic transformations described herein. Wild-type or transgenic seeds were germinated on Murashige and Skoog (MS) plates. For quantitative RT-PCR, germinated small seedlings were transferred onto larger MS plates and grown vertically until two weeks old before treated with 0.1% DMSO (control) or 100 μM MeJA. For TLC and GC-MS analysis, germinated seedlings were transferred in soil and grown under normal condition till five weeks old before DMSO or MeJA treatment. […]
Each gene was put into three different expression constructs respectively under the control of three different promoters described above (FIG. 3A). […] For each construct, at least eight lines were confirmed to have the transgene stably integrated into the genome by genomic PCR, the intact structure of the transgene was validated and relative level of transgene expression measured by RT-PCR using gene specific primers as is standard practice. The level of nicotine was assessed by TLC analysis to quickly identify the transformants with higher nicotine accumulation than the wild-type. […] T1 lines were similarly self-pollinated and the resulting T2 plants analyzed. […]

Substance: NtERF221: AP2/ERF family transcription factor transgene (CQ808982, SEQ ID NO: 1) overexpressed in tobacco K326
- JA-induced transcript accumulation of NtAO, NtODC, NtPMT, NtQPT, and NtQS versus wild-type [1]: far greater; also recorded: greatly up-regulated
- nicotine concentration in the leaf, comparison among transgenic lines [2]: highest nicotine concentration
- nicotine accumulation versus wild-type (TLC) [3]: significantly elevated nicotine accumulation
